Among the test systems are UACC-62 melanoma; A549 NSCLC; TK-10 renal; OVCAR-8 ovarian; PC-3 prostate; HOP-62 NSCLC; T-47D breast; HL-60(TB) leukemia; A498 renal; EKVX NSCLC; NCI/ADR-RES ovarian; NCI-H460 lung; HOP-92 NSCLC; K-562 leukemia; SW-620 colon; OVCAR-5 ovarian; BT-549 breast; SNB-19 CNS; RXF 393 renal; NCI-H23 lung.
Test in all cases: inhibition of tumour cell growth, NCI panel, 48 h

SMILES strings stand for the structures.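 Compound exposure: 48 hours, 5 concentrations, 96-well plates. TGI denotes the concentration required for complete inhibition of growth.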

On to `CC1=C(C#N)C23C(=O)c4ccccc4C(O)=C2C(=O)C=CC3(O)N1` (centres undefined), for which the TGI was 6.4 µM in the test on UACC-62 melanoma; above 100 µM with A549 NSCLC; 35.7 µM with TK-10 renal; above 100 µM with OVCAR-8 ovarian; 28.7 µM in the test with PC-3 prostate; 51 µM in the test with HOP-62 NSCLC. In addition, the TGI with T-47D breast was above 100 µM; in the test with HL-60(TB) leukemia, 15.2 µM; in the test on A498 renal it was 37.6 µM; with EKVX NSCLC, above 100 µM; in the test with NCI/ADR-RES ovarian it was above 100 µM; in the test with NCI-H460 lung it was 31.1 µM. Also, the TGI in the test with HOP-92 NSCLC was 6.38 µM; in the test with K-562 leukemia it was above 100 µM; with SW-620 colon, 12.6 µM; in the test on OVCAR-5 ovarian, 36.3 µM; with BT-549 breast it was 3.38 µM; in the test on SNB-19 CNS, 25.5 µM. In addition, the results for the TGI in the test on RXF 393 renal and with NCI-H23 lung were 9.74 µM and 31.9 µM, respectively.
As to `CCSC1=N/C(=C\c2ccco2)C(NN)=N1`, the TGI with UACC-62 melanoma, in the test on A549 NSCLC, in the test on TK-10 renal, in the test on OVCAR-8 ovarian, in the test on PC-3 prostate and with HOP-62 NSCLC was above 50 µM throughout. Also, the TGI in the test with T-47D breast, in the test with HL-60(TB) leukemia, in the test on A498 renal, in the test with EKVX NSCLC, in the test with NCI/ADR-RES ovarian and in the test with NCI-H460 lung was above 50 µM each time. Besides, the TGI with HOP-92 NSCLC, in the test with K-562 leukemia, in the test on SW-620 colon, in the test on OVCAR-5 ovarian, with BT-549 breast and in the test on SNB-19 CNS was above 50 µM each time. The TGI in the test with RXF 393 renal and in the test with NCI-H23 lung was above 50 µM throughout.
In the case of `N=c1oc2c(Br)cc(Br)cc2cc1C(=O)Nc1ccccn1`, the TGI in the test with UACC-62 melanoma, with A549 NSCLC, in the test on OVCAR-8 ovarian, with PC-3 prostate, in the test on HOP-62 NSCLC and in the test on T-47D breast was above 100 µM each time. The TGI in the test on HL-60(TB) leukemia, with A498 renal, in the test with EKVX NSCLC, in the test with NCI/ADR-RES ovarian, in the test on NCI-H460 lung and in the test with HOP-92 NSCLC was above 100 µM in each case. Moreover, the TGI in the test with K-562 leukemia, in the test on SW-620 colon, in the test with OVCAR-5 ovarian, with BT-549 breast, in the test with SNB-19 CNS and in the test with RXF 393 renal was above 100 µM each time. In the test on NCI-H23 lung, the TGI was above 100 µM.
Take `CCCCC(C(=O)N/N=C/c1ccc([N+](=O)[O-])o1)C(=O)N/N=C/c1ccc([N+](=O)[O-])o1`: the TGI is 11.5 µM in the test with UACC-62 melanoma; 41.4 µM in the test with A549 NSCLC; 7.73 µM in the test on TK-10 renal; 5.89 µM in the test on OVCAR-8 ovarian; 14.4 µM in the test with PC-3 prostate; 28.8 µM with HOP-62 NSCLC. The TGI with T-47D breast is 7.69 µM; in the test on HL-60(TB) leukemia it was 6.71 µM; with A498 renal, 41 µM; in the test on EKVX NSCLC, 26.6 µM; in the test on NCI/ADR-RES ovarian, 5.91 µM; in the test on NCI-H460 lung, 35.6 µM. Further, the TGI in the test on HOP-92 NSCLC came to 4.08 µM; in the test with K-562 leukemia, 14.6 µM; in the test with SW-620 colon, 6.71 µM; in the test on OVCAR-5 ovarian, 7.23 µM; in the test with BT-549 breast it was 17.2 µM; with SNB-19 CNS, 13.7 µM. Besides, the TGI with RXF 393 renal was found to be 5.07 µM; in the test with NCI-H23 lung, 4.65 µM.
Consider `Cc1ccc(-c2cc(-c3ccc(Cl)cc3)nc(/N=C3\C(=O)N(CN4CCOCC4)c4ccccc43)n2)cc1`, for which the TGI in the test with UACC-62 melanoma is 41.4 µM; in the test with A549 NSCLC it was 39.7 µM; with TK-10 renal, 81.7 µM; in the test with OVCAR-8 ovarian, 50.8 µM; in the test on PC-3 prostate it was above 100 µM; with HOP-62 NSCLC it was above 100 µM. Further, the TGI with T-47D breast is above 100 µM; with HL-60(TB) leukemia, 26.3 µM; in the test on A498 renal, 38.9 µM; in the test on EKVX NSCLC, above 100 µM; in the test with NCI/ADR-RES ovarian, above 100 µM; with NCI-H460 lung, 50.8 µM. Moreover, the TGI stood at 62.7 µM in the test with HOP-92 NSCLC; 76.8 µM with K-562 leukemia; 62.8 µM in the test on SW-620 colon; 67.9 µM in the test with OVCAR-5 ovarian; 88.5 µM in the test with BT-549 breast; 42.2 µM with SNB-19 CNS. Further, the TGI in the test on RXF 393 renal was 30.9 µM; with NCI-H23 lung it was 46 µM.
Turning to `CN(C)CCCNC(=O)c1cc(NC(=O)c2cc(NS(=O)(=O)c3ccc4c(c3)C(=O)c3ccccc3C4=O)cn2C)cn1C`, the TGI in the test with UACC-62 melanoma, in the test with A549 NSCLC, in the test with TK-10 renal, with OVCAR-8 ovarian, in the test with PC-3 prostate and in the test on HOP-62 NSCLC was above 100 µM throughout. The TGI with T-47D breast, in the test on HL-60(TB) leukemia, in the test with A498 renal, in the test with EKVX NSCLC, in the test with NCI/ADR-RES ovarian and with NCI-H460 lung was above 100 µM throughout. Also, the TGI in the test on HOP-92 NSCLC, in the test on K-562 leukemia, in the test with SW-620 colon, with OVCAR-5 ovarian, in the test on BT-549 breast and in the test with SNB-19 CNS was above 100 µM each time. Besides, the TGI in the test on RXF 393 renal and with NCI-H23 lung was above 100 µM in each case.
As for `C=CCc1c(C)nc(C)nc1N/N=C/C=C/c1ccccc1`, the TGI is 53.4 µM in the test with UACC-62 melanoma; above 100 µM with A549 NSCLC; 99.9 µM in the test on TK-10 renal; 97.7 µM with OVCAR-8 ovarian; above 100 µM in the test with PC-3 prostate; 38.8 µM in the test with HOP-62 NSCLC. Besides, the TGI in the test on T-47D breast is 28 µM; in the test with HL-60(TB) leukemia, 81.2 µM; with A498 renal, 65.2 µM; with EKVX NSCLC it was 69.2 µM; with NCI/ADR-RES ovarian it was 64.8 µM; in the test with NCI-H460 lung, 57.5 µM. Further, the TGI was 99.5 µM in the test with HOP-92 NSCLC; 87.4 µM in the test on K-562 leukemia; above 100 µM in the test with SW-620 colon; above 100 µM with OVCAR-5 ovarian; 63.2 µM with BT-549 breast; above 100 µM in the test on SNB-19 CNS. Further, the TGI was determined as 47 µM in the test with RXF 393 renal and 94 µM in the test on NCI-H23 lung.

Values taken from PubChem BioAssay (NCI).
